# Results taken from US20140323504A1, “Pyrazolo[4,3-c]Pyridine Derivatives As Kinase Inhibitors” (Cellzome Limited, priority 2011, published 2014).
# pIC50: −log10 of the molar value.
# Assays:
# JAK1 = target: T1, JAK1 (Homo sapiens, UniProt P23458); assay: Kinobeads assay with antibody detection, JAK1; assay type: binding; details: mixed Molt4/Ramos lysate, read-out: JAK1 inhibition value (IC50)
# T1 construct: endogenous in cells; host or cells: mixed Molt4/Ramos cell lysate (1:2)
# Method: (§1) The compounds of the present invention as described in the previous examples were tested in a Kinobeads™ assay as described for ZAP-70 (WO-A 2007/137867). Briefly, test compounds (at various concentrations) and the affinity matrix with the immobilized aminopyrido-pyrimidine ligand 24 were added to cell lysate aliquots and allowed to bind to the proteins in the lysate sample. After the incubation time the beads with captured proteins were separated from the lysate. Bound proteins were then eluted and the presence of JAK1; JAK2, JAK3 and TYK2 was detected and quantified using specific antibodies in a dot blot procedure and the Odyssey infrared detection system. Dose response curves for individual kinases were generated and IC50 values calculated. Kinobeads™ assays for ZAP-70 (WO-A 2007/137867) and for kinase selectivity profiling (WO-A 2006/134056) have been previously described.
# (§2) 5×DP buffer: 250 mM Tris-HCl pH 7.4, 25% Glycerol, 7.5 mM MgCl2, 750 mM NaCl, 5 mM Na3VO4; filter the 5×DP buffer through a 0.22 μm filter and store in aliquot at −80° C. The 5×DP buffer is diluted with H2O to 1×DP buffer containing 1 mM DTT and 25 mM NaF.
# (§3) Stock solutions of test compounds were prepared in DMSO. In a 96 well plate 30 μL solution of diluted test compounds at 5 mM in DMSO were prepared. Starting with this solution a 1:3 dilution series (9 steps) was prepared. For control experiments (no test compound) a buffer containing 2% DMSO was used.
# (§4) Molt4 cells (ATCC catalogue number CRL-1582) and Ramos cells (ATCC catalogue number CRL-1596) were grown in 1 L Spinner flasks (Integra Biosciences, #182101) in suspension in RPMI 1640 medium (Invitrogen, #21875-034) supplemented with 10% Fetal Bovine Serum (Invitrogen) at a density between 0.15×10^6 and 1.2×10^6 cells/mL. Cells were harvested by centrifugation, washed once with 1×PBS buffer (Invitrogen, #14190-094) and cell pellets were frozen in liquid nitrogen and subsequently stored at −80° C. Cells were homogenized in a Potter S homogenizer in lysis buffer: 50 mM Tris-HCl, 0.8% NP40, 5% glycerol, 150 mM NaCl, 1.5 mM MgCl2, 25 mM NaF, 1 mM sodium vanadate, 1 mM DTT, pH 7.5. One complete EDTA-free tablet (protease inhibitor cocktail, Roche Diagnostics, 1873580) per 25 mL buffer was added. The material was dounced 10 times using a mechanized POTTER S, transferred to 50 mL falcon tubes, incubated for 30 minutes on ice and spun down for 10 minutes at 20,000 g at 4° C. (10,000 rpm in Sorvall SLA600, precooled). The supernatant was transferred to an ultracentrifuge (UZ)-polycarbonate tube (Beckmann, 355654) and spun for 1 hour at 100.000 g at 4° C. (33.500 rpm in Ti50.2, precooled). The supernatant was transferred again to a fresh 50 mL falcon tube, the protein concentration was determined by a Bradford assay (BioRad) and samples containing 50 mg of protein per aliquot were prepared. The samples were immediately used for experiments or frozen in liquid nitrogen and stored frozen at −80° C.
# (§5) Cell lysate (approximately 50 mg protein per plate) was thawed in a water bath at room temperature and then stored on ice. To the thawed cell lysate 1×DP 0.8% NP40 buffer containing protease inhibitors (1 tablet for 25 mL buffer; EDTA-free protease inhibitor cocktail; Roche. Diagnostics 1873580) was added in order to reach a final protein concentration of 10 mg/mL total protein. The diluted cell lysate was stored on ice. Mixed Molt4Ramos lysate was prepared by combining one volume of Molt4 lysate and two volumes of Ramos lysate (ratio 1:2).
# (§6) Plates were sealed and incubated for 3 hours in a cold room on a plate shaker (Heidolph tiramax 1000) at 750 rpm. Afterwards the plate was washed 3 times with 230 μL washing buffer (1×DP 0.4% NP40). The filter plate was placed on top of a collection plate (Greiner bio-one, PP-microplate 96 well V-shape, 65120) and the beads were then eluted with 20 μL of sample buffer (100 mM Tris, pH 7.4, 4% SDS, 0.00025% bromophenol blue, 20% glycerol, 50 mM DTT). […]
# JAK3 = target: T2, JAK3 (Homo sapiens, UniProt P52333); assay: Kinobeads assay with antibody detection, JAK3; assay type: binding; parameters: endogenous in cells; host or cells: mixed Molt4/Ramos cell lysate (1:2); details: mixed Molt4/Ramos lysate, read-out: JAK3 inhibition value (IC50)
# T2 sequence (P52333 1-1124): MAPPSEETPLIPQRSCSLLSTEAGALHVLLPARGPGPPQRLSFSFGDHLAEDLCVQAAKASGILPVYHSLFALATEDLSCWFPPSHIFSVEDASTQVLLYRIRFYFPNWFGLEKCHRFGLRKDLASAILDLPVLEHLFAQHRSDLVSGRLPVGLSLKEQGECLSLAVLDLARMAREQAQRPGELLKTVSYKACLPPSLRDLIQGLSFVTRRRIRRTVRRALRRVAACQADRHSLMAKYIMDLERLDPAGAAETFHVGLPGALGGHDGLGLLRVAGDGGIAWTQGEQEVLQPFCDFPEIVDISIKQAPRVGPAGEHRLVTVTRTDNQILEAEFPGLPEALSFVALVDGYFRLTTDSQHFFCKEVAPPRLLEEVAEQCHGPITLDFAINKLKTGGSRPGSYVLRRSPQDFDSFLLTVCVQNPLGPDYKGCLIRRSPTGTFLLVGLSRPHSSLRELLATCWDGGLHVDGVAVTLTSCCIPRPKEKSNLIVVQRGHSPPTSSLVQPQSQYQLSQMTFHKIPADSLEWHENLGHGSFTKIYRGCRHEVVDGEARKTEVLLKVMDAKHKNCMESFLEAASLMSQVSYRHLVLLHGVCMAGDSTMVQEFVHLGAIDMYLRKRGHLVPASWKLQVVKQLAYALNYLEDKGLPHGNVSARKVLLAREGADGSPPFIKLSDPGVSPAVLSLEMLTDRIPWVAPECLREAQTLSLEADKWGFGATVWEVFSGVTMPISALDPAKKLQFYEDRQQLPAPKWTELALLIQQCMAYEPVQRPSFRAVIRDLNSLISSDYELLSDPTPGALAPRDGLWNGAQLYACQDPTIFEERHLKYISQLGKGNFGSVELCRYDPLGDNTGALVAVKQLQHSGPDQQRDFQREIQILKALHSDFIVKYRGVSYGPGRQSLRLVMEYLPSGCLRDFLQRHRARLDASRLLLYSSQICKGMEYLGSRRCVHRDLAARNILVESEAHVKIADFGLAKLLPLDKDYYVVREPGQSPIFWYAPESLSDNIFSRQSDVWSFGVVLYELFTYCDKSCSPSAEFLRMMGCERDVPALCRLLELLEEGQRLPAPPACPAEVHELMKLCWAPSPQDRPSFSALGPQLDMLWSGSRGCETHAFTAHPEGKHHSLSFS
# Method: as §1, §2, §3, §4, §5, §6
# T1 sequence (P23458 whole entry): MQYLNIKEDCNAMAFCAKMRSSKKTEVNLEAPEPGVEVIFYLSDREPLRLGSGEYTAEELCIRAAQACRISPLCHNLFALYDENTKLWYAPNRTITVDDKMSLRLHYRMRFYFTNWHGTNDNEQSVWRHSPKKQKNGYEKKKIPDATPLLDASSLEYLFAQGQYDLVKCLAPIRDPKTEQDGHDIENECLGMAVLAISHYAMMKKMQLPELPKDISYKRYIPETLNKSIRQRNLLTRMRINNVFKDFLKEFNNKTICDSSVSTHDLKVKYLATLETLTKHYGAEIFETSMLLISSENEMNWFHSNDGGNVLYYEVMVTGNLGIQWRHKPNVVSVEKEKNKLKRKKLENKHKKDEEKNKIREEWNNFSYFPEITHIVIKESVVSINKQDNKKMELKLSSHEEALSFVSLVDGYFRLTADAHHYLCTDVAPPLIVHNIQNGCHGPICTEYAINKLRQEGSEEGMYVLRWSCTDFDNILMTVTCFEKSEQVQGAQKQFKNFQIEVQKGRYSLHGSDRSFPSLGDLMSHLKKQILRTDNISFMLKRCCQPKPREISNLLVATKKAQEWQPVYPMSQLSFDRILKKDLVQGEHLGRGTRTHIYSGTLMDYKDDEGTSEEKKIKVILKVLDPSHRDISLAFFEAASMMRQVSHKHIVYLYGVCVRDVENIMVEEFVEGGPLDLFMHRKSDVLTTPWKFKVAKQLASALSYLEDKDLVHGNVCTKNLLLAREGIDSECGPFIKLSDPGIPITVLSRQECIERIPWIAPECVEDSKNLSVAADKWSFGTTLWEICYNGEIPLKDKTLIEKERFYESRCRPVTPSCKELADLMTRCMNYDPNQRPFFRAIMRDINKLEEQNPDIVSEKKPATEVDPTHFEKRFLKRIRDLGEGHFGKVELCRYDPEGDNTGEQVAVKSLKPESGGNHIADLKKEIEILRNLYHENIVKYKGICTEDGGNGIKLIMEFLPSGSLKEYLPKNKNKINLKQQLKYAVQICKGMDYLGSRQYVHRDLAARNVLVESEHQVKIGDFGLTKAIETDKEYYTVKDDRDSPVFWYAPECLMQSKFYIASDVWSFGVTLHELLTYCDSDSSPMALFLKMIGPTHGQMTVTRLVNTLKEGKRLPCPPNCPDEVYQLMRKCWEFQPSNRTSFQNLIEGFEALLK
pIC50 (JAK1),pIC50 (JAK3),SMILES
< 5.00,8.30,"C=CC(=O)Nc1cccc(Cn2ncc3cnc(Nc4cnn(C)c4)nc32)c1 [Example 1, N-(3-((6-((1-Methyl-1H-pyrazol-4-yl)amino)-1H-pyrazolo[3,4-d]pyrimidin-1-yl)methyl)phenyl)acrylamide]"
< 5.00,7.80,"C=CC(=O)Nc1cc(Cn2ncc3cnc(Nc4cnn(C)c4)nc32)ccc1F [Example 2, N-(2-Fluoro-5-((6-((1-methyl-1H-pyrazol-4-yl)amino)-1H-pyrazolo[3,4-c]pyrimidin-1-yl)methyl)phenyl)acrylamide]"
< 5.00,8.00,"C#CC(=O)Nc1cccc(Cn2ncc3cnc(Nc4cnn(C)c4)nc32)c1 [Example 3, N-(3-((6-((1-Methyl-1H-pyrazol-4-yl)amino)-1H-pyrazolo[3,4-d]pyrimidin-1-yl)methyl)phenyl)propiolamide]"
< 5.00,8.00,"C=CS(=O)(=O)Nc1cccc(Cn2ncc3cnc(Nc4cnn(C)c4)nc32)c1 [Example 4, N-(3-((6-((1-Methyl-1H-pyrazol-4-yl)amino)-1H-pyrazolo[3,4-d]pyrimidin-1-yl)methyl)phenyl)ethenesulfonamide]"
< 5.00,7.24,"C=C(C)C(=O)Nc1cccc(Cn2ncc3cnc(Nc4cnn(C)c4)nc32)c1 [Example 5, N-(3-((6-((1-Methyl-1H-pyrazol-4-yl)amino)-1H-pyrazolo[3,4-d]pyrimidin-1-yl)methyl)phenyl)methacrylamide]"
5.11,7.92,"C=CS(=O)(=O)Nc1cccc(Cn2ccc3cnc(Nc4cnn(C)c4)nc32)c1 [Example 7, N-(3-((2-((1-Methyl-1H-pyrazol-4-yl)amino)-7H-pyrrolo[2,3-d]pyrimidin-7-yl)methyl)phenyl)ethenesulfonamide]"
< 5.00,6.69,"CC(=O)Nc1cccc(Cn2ncc3cnc(Nc4cnn(C)c4)nc32)c1 [compound 2, N-(3-((6-((1-methyl-1H-pyrazol-4-yl)amino)-1H-pyrazolo[3,4-d]pyrimidin-1-yl)methyl)phenyl)acetamide, reference compound]"
